Results from patent US20110165195A1 (priority 2007, published 2011).

Tests used:
Caco-2 cell line = details: cited from earlier work
[1] = test system: rat intestinal tract tissue; details: in vivo; cited from earlier work
in vivo [2] = details: male, SD, rat
in vivo [3] = details: male, SD, rat, iv, 10 ug/kg
in vivo [4] = details: male, SD, rat; remark: listed apart in the source
in vivo [5] = details: male, SD, rat, sc, 10 ug/kg
in vivo [6] = details: male, rat
in vivo [7] = details: male, SD, rat, iv, 10 ug/kg; remark: listed apart in the source
in vivo [8] = details: male, SD, rat; remark: listed apart in the source
[9] = rat, in vivo

## CCCCCCCCCC(=O)O [capric acid]
Caco-2 cell line
  cytotoxicity and tissue damage: exhibits cytotoxicity and causes tissue damage
[1]
  cytotoxicity and tissue damage: exhibits cytotoxicity and causes tissue damage

## CC[C@H](C)[C@H](NC(=O)[C@H](CCC(=O)O)NC(=O)[C@H](CO)NC(=O)[C@@H](NC(=O)[C@@H](N)CO)C(C)C)C(=O)N[C@@H](CCC(N)=O)C(=O)N[C@@H](CC(C)C)C(=O)N[C@@H](CCSC)C(=O)N[C@@H](Cc1cnc[nH]1)C(=O)N[C@@H](CC(N)=O)C(=O)N[C@@H](CC(C)C)C(=O)NCC(=O)N[C@@H](CCCCN)C(=O)N[C@@H](Cc1cnc[nH]1)C(=O)N[C@@H](CC(C)C)C(=O)N[C@@H](CC(N)=O)C(=O)N[C@@H](CO)C(=O)N[C@@H](CCSC)C(=O)N[C@@H](CCC(=O)O)C(=O)N[C@@H](CCCN=C(N)N)C(=O)N[C@H](C(=O)N[C@@H](CCC(=O)O)C(=O)N[C@@H](Cc1c[nH]c2ccccc12)C(=O)N[C@@H](CC(C)C)C(=O)N[C@@H](CCCN=C(N)N)C(=O)N[C@@H](CCCCN)C(=O)N[C@@H](CCCCN)C(=O)N[C@@H](CC(C)C)C(=O)N[C@@H](CCC(N)=O)C(=O)N[C@@H](CC(=O)O)C(=O)N[C@H](C(=O)N[C@@H](Cc1cnc[nH]1)C(=O)N[C@@H](CC(N)=O)C(=O)N[C@@H](Cc1ccccc1)C(=O)O)C(C)C)C(C)C [hPTH(1-34)]
In vivo [2]
  bioavailability: 0.3 ± 0.1%
In vivo [2]; inhaled or intranasal
  AUC: 0.732 ng·h/mL
  Cmax: 0.67 ± 0.16 ng/mL
In vivo [3]
  AUC: 3.48 ng·h/mL
  Cmax: 31 ± 1.3 ng/mL
In vivo [4]
  AUC: 25.6 ng·h/mL
  Cmax: 27.8 ± 15.9 ng/mL
In vivo [4]; iv
  bioavailability: 14.6 ± 10.7%
In vivo [5]
  AUC: 0.827 ng·h/mL
  Cmax: 1.07 ± 0.41 ng/mL
In vivo [6]; Wistar, iv
  bioavailability: 0.4 ± 0.4%
In vivo [6]; Wister
  AUC: 0.538 ng·h/mL
  Cmax: 0.93 ± 0.8 ng/mL

## CCCCCCCC(=O)OC[C@H](NC(=O)[C@H](CO)NC(=O)CN)C(=O)N[C@@H](Cc1ccccc1)C(=O)N[C@@H](CC(C)C)C(=O)N[C@@H](CO)C(=O)N1CCC[C@H]1C(=O)N[C@@H](CCC(=O)O)C(=O)N[C@@H](Cc1cnc[nH]1)C(=O)N[C@@H](CCC(N)=O)C(=O)N[C@@H](CCCNC(=N)N)C(=O)N[C@H](C(=O)N[C@@H](CCC(N)=O)C(=O)N[C@@H](CCC(N)=O)C(=O)N[C@@H](CCCNC(=N)N)C(=O)N[C@@H](CCCCN)C(=O)N[C@@H](CCC(=O)O)C(=O)N[C@@H](CO)C(=O)N[C@@H](CCCCN)C(=O)N[C@@H](CCCCN)C(=O)N1CCC[C@H]1C(=O)N1CCC[C@H]1C(=O)N[C@@H](C)C(=O)N[C@@H](CCCCN)C(=O)N[C@@H](CC(C)C)C(=O)N[C@@H](CCC(N)=O)C(=O)N1CCC[C@H]1C(=O)N[C@@H](CCCNC(=N)N)C(=O)O)C(C)C [human ghrelin]
In vivo [7]
  AUC: 3.43 ng·h/mL
  C0: 40.7 ng/mL
In vivo [8]
  AUC: 0.533 ng·h/mL
  Cmax: 2.25 ± 2 ng/mL
  bioavailability: 1.6 ± 1.4%

## CC[C@H](C)[C@H](NC(=O)[C@@H]1CCCN1C(=O)[C@@H](NC(=O)[C@@H](N)Cc1ccccc1)C(C)C)C(=O)N[C@@H](Cc1ccccc1)C(=O)N[C@H](C(=O)N[C@@H](Cc1ccc(O)cc1)C(=O)NCC(=O)N[C@@H](CCC(=O)O)C(=O)N[C@@H](CC(C)C)C(=O)N[C@@H](CCC(N)=O)C(=O)N[C@@H](CCCNC(=N)N)C(=O)N[C@@H](CCSC)C(=O)N[C@@H](CCC(N)=O)C(=O)N[C@@H](CCC(=O)O)C(=O)N[C@@H](CCCCN)C(=O)N[C@@H](CCC(=O)O)C(=O)N[C@@H](CCCNC(=N)N)C(=O)N[C@@H](CC(N)=O)C(=O)N[C@@H](CCCCN)C(=O)NCC(=O)N[C@@H](CCC(N)=O)C(=O)O)[C@@H](C)O [human motilin]
[9]
  BA of human motilin: 1.1 ± 0.7%
